Reference: patent US20140107100A1, “Benzoxazepines as Inhibitors of PI3K/mTOR and Methods of Their Use and Manufacture” (EXELIXIS, INC., priority 2010, published 2014)

Target: mTOR/GbL/Raptor (mTORC1) (Homo sapiens, UniProt P42345)
Assay: mTOR/GbL/Raptor (mTORC1) ELISA assay, phosphorylation of 4E-BP1
Assay type: biochemical
Settings: 0.2 nM mTORC1, 40 uM ATP, 50 nM NHis-tagged 4E-BP1, 120 minutes; read-out: IC50 in this assay (mTORC1 ELISA)
Method in brief: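 Phospho-4E-BP1 was quantified by luminescent ELISA (anti-phospho-4E-BP1 IgG, HRP-tagged secondary) after capture of the His-tagged substrate on Ni-chelate plates.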

`C=Cc1c(Cl)nc(N)nc1N1CCOc2c(C)cc(-c3cnc4sc(N)nc4c3)cc2C1` [Compound 40, 6-[4-(2-amino-6-chloro-5-ethenylpyrimidin-4-yl)-9-methyl-2,3,4,5-tetrahydro-1,4-benzoxazepin-7-yl][1,3]thiazolo[5,4-b]pyridin-2-amine] was tested, and the IC50 was ≤ 100 nM.
With `Cc1cc(-c2cnc3sc(N)nc3c2)cc2c1OCCN(c1ncc(F)c(N)n1)C2` [Compound 35, 6-[4-(4-amino-5-fluoropyrimidin-2-yl)-9-methyl-2,3,4,5-tetrahydro-1,4-benzoxazepin-7-yl][1,3]thiazolo[5,4-b]pyridin-2-amine] the IC50 was 100 to 500 nM.
`C=CCc1c(C)nc(N)nc1N1CCOc2c(C)cc(-c3cnc4sc(N)nc4c3)cc2C1` [Compound 51, 6-{4-(2-amino-6-methyl-5-prop-2-en-1-ylpyrimidin-4-yl)-9-methyl-2,3,4,5-tetrahydro-1,4-benzoxazepin-7-yl][1,3]thiazolo[5,4-b]pyridin-2-amine] was tested, and the IC50 was ≤ 100 nM.
For `Cc1nc2ccc(-c3cc(C)c4c(c3)CN(c3ncnc5ccc(I)cc35)CCO4)cc2[nH]1` [Compound 47, 4-(6-iodoquinazolin-4-yl)-9-methyl-7-(2-methyl-1H-benzimidazol-6-yl)-2,3,4,5-tetrahydro-1,4-benzoxazepine], the IC50 was 100 to 500 nM.
For `Cc1cc(-c2cnc3sc(N)nc3c2)cc2c1OCCN(c1nc(CNC3CC3)nc(C)c1C(C)C)C2` [Compound 121, 6-(4-{2-[(cyclopropylamino)methyl]-6-methyl-5-(1-methylethyl)pyrimidin-4-yl}-9-methyl-2,3,4,5-tetrahydro-1,4-benzoxazepin-7-yl)[1,3]thiazolo[5,4-b]pyridin-2-amine], the IC50 was ≤ 100 nM.
With `Cc1cc(-c2cnc(Cl)c(NS(=O)(=O)C(F)(F)F)c2)cc2c1OCCN(c1nc(N)nc(C)c1C(C)C)C2` [Compound 52, N-(5-{4-[2-amino-6-methyl-5-(1-methylethyl)pyrimidin-4-yl]-9-methyl-2,3,4,5-tetrahydro-1,4-benzoxazepin-7-yl}-2-chloropyridin-3-yl)-1,1,1-trifluoromethanesulfonamide] the IC50 was ≤ 100 nM.
`Cc1cc(-c2cnc3sc(N)nc3c2)cc2c1OCCN(c1nc(C(F)F)nc(C)c1C(C)C)C2` [Compound 144, 6-{4-[2-(difluoromethyl)-6-methyl-5-(1-methylethyl)pyrimidin-4-yl]-9-methyl-2,3,4,5-tetrahydro-1,4-benzoxazepin-7-yl}[1,3]thiazolo[5,4-b]pyridin-2-amine] was tested, and the IC50 was ≤ 100 nM.
Molecule `Cc1cc(-c2cnc3sc(N)nc3c2)cc2c1OCCN(c1nc(CNCC(F)(F)F)nc(C)c1C(C)C)C2` [Compound 103, 6-{9-methyl-4-[6-methyl-5-(1-methylethyl)-2-{[(2,2,2-trifluoroethyl)amino]methyl}pyrimidin-4-yl]-2,3,4,5-tetrahydro-1,4-benzoxazepin-7-yl}[1,3]thiazolo[5,4-b]pyridin-2-amine] has an IC50 of 100 to 500 nM.
With `Cc1cc(-c2nnc(N)s2)cc2c1OCCN(c1ncnc(C)c1C(C)C)C2` [Compound 173, 5-{9-methyl-4-[6-methyl-5-(1-methylethyl)pyrimidin-4-yl]-2,3,4,5-tetrahydro-1,4-benzoxazepin-7-yl}-1,3,4-thiadiazol-2-amine] the IC50 was ≤ 100 nM.
With `CCN(CCF)Cc1nc(C)c(C(C)C)c(N2CCOc3c(C)cc(-c4cnc5sc(N)nc5c4)cc3C2)n1` [Compound 159, 6-{4-[2-{[ethyl(2-fluoroethyl)amino]methyl}-6-methyl-5-(1-methylethyl)pyrimidin-4-yl]-9-methyl-2,3,4,5-tetrahydro-1,4-benzoxazepin-7-yl}[1,3]thiazolo[5,4-b]pyridin-2-amine] the IC50 was ≤ 100 nM.
`C#Cc1c(C)nc(N)nc1N1CCOc2c(C)cc(-c3cnc4sc(N)nc4c3)cc2C1` [Compound 145, 6-[4-(2-amino-5-ethynyl-6-methylpyrimidin-4-yl)-9-methyl-2,3,4,5-tetrahydro-1,4-benzoxazepin-7-yl][1,3]thiazolo[5,4-b]pyridin-2-amine] was tested, and the IC50 was ≤ 100 nM.
With `Cc1nc2cc(-c3cc(C)c4c(c3)CN(c3nc(N)nc(C)c3C(C)C)CCO4)cnc2[nH]1` [Compound 162, 4-methyl-5-(1-methylethyl)-6-[9-methyl-7-(2-methyl-3H-imidazo[4,5-b]pyridin-6-yl)-2,3-dihydro-1,4-benzoxazepin-4(5H)-yl]pyrimidin-2-amine] the IC50 was ≤ 100 nM.
Molecule `Cc1cc(-c2cccnc2)cc2c1OCCN(c1nc(N)nc(C)c1C(C)C)C2` [Compound 76, 4-methyl-5-(1-methylethyl)-6-(9-methyl-7-pyridin-3-yl-2,3-dihydro-1,4-benzoxazepin-4(5H)-yl)pyrimidin-2-amine] has an IC50 of 100 to 500 nM.
`Cc1cc(-c2cnc3sc(N)nc3c2)cc2c1OCCN(c1nc([C@@H]3C[C@@H](F)CN3)nc(C)c1C(C)C)C2` [Compound 151, 6-(4-{2-[(2S,4R)-4-fluoropyrrolidin-2-yl]-6-methyl-5-(1-methylethyl)pyrimidin-4-yl}-9-methyl-2,3,4,5-tetrahydro-1,4-benzoazepin-7-yl)[1,3]thiazolo[5,4-b]pyridin-2-amine] was tested, and the IC50 was ≤ 100 nM.
For `Cc1nc2ncc(-c3cc(C)c4c(c3)CN(c3nc(CNCC(F)F)nc(C)c3C(C)C)CCO4)cc2[nH]1` [Compound 166, 2,2-difluoro-N-({4-methyl-5-(1-methylethyl)-6-[9-methyl-7-(2-methyl-1H-imidazo[4,5-b]pyridin-6-yl)-2,3-dihydro-1,4-benzoxazepin-4(5H)-yl]pyrimidin-2-yl}methyl)ethanamine], the IC50 was ≤ 100 nM.
With `Cc1cc(-c2cnc3sc(N)nc3c2)cc2c1OCCN(c1nc(CN(C)C)ncc1C(C)C)C2` [Compound 58, 6-(4-{2-[(dimethylamino)methyl]-5-(1-methylethyl)pyrimidin-4-yl}-9-methyl-2,3,4,5-tetrahydro-1,4-benzoxazepin-7-yl)[1,3]thiazolo[5,4-b]pyridin-2-amine] the IC50 was ≤ 100 nM.
`CC(=O)c1c(C)ncnc1N1CCOc2c(C)cc(-c3cnc4sc(N)nc4c3)cc2C1` [Compound 125, 1-{4-[7-(2-amino[1,3]thiazolo[5,4-b]pyridin-6-yl)-9-methyl-2,3-dihydro-1,4-benzoxazepin-4(5H)-yl]-6-methylpyrimidin-5-yl}ethanone] was tested, and the IC50 was ≤ 100 nM.
With `CNCc1nc(C)c(C(C)C)c(N2CCOc3c(C)cc(-c4cnc5sc(N)nc5c4)cc3C2)n1` [Compound 136, 6-(9-methyl-4-{6-methyl-2-[(methylamino)methyl]-5-(1-methylethyl)pyrimidin-4-yl}-2,3,4,5-tetrahydro-1,4-benzoxazepin-7-yl)[1,3]thiazolo[5,4-b]pyridin-2-amine] the IC50 was ≤ 100 nM.
`Cc1nc2ccc(-c3cc(C)c4c(c3)CN(c3nc(N)nc(C)c3C(C)C)CCO4)cc2[nH]1` [Compound 2, 4-methyl-5-(1-methylethyl)-6-[9-methyl-7-(2-methyl-1H-benzimidazol-6-yl)-2,3-dihydro-1,4-benzoxazepin-4(5H)-yl]pyrimidin-2-amine] was tested, and the IC50 was ≤ 100 nM.
In the case of `CC(=O)Nc1ncc(-c2cc(C)c3c(c2)CN(c2nc(N)nc(C)c2C(C)C)CCO3)s1` [Compound 106, N-(5-{4-[2-amino-6-methyl-5-(1-methylethyl)pyrimidin-4-yl]-9-methyl-2,3,4,5-tetrahydro-1,4-benzoxazepin-7-yl}-1,3-thiazol-2-yl)acetamide], the IC50 is reported as ≤ 100 nM.
In the case of `C=C(C)c1c(C)ncnc1N1CCOc2c(C)cc(-c3cnc4sc(N)nc4c3)cc2C1` [Compound 124, 6-{9-methyl-4-[6-methyl-5-(1-methylethenyl)pyrimidin-4-yl]-2,3,4,5-tetrahydro-1,4-benzoxazepin-7-yl}[1,3]thiazolo[5,4-b]pyridin-2-amine], the IC50 is reported as ≤ 100 nM.
Work on `Cc1cc(-c2ccncc2)cc2c1OCCN(c1nc(N)nc(C)c1C(C)C)C2` [Compound 75] yielded an IC50 of 100 to 500 nM.
For `Cc1cc(-c2cnc3sc(N)nc3c2)cc2c1OCCN(c1nc([C@@H]3CC(F)(F)CN3)nc(C)c1C(C)C)C2` [Compound 147, 6-(4-{2-[(2S)-4,4-difluoropyrrolidin-2-yl]-6-methyl-5-(1-methylethyl)pyrimidin-4-yl}-9-methyl-2,3,4,5-tetrahydro-1,4-benzoxazepin-7-yl)[1,3]thiazolo[5,4-b]pyridin-2-amine], the IC50 was ≤ 100 nM.
`Cc1cc(-c2cnc3sc(N)nc3c2)cc2c1OCCN(c1nc(CN(C)C)ncc1CC(F)(F)F)C2` [Compound 60, 6-(4-{2-[(dimethylamino)methyl]-5-(2,2,2-trifluoroethyl)pyrimidin-4-yl}-9-methyl-2,3,4,5-tetrahydro-1,4-benzoxazepin-7-yl)[1,3]thiazolo[5,4-b]pyridin-2-amine] showed an IC50 of 100 to 500 nM.
`C#CCc1c(C)nc(C)nc1N1CCOc2c(C)cc(-c3cnc4sc(N)nc4c3)cc2C1` [Compound 138, 6-[4-(2,6-dimethyl-5-prop-2-yn-1-ylpyrimidin-4-yl)-9-methyl-2,3,4,5-tetrahydro-1,4-benzoxazepin-7-yl][1,3]thiazolo[5,4-b]pyridin-2-amine] was tested, and the IC50 was ≤ 100 nM.
For `Cc1cc(-c2cnc(Cl)c(NS(C)(=O)=O)c2)cc2c1OCCN(c1ncc(C#N)c(N)n1)C2` [Compound 28, N-{5-[4-(4-amino-5-cyanopyrimidin-2-yl)-9-methyl-2,3,4,5-tetrahydro-1,4-benzoxazepin-7-yl]-2-chloropyridin-3-yl}methanesulfonamide], the IC50 was ≤ 100 nM.
With `Cc1cc(-c2cnc3sc(N)nc3c2)cc2c1OCCN(c1nc(N)c(C#N)c(C)c1C#N)C2` [Compound 57, 2-amino-6-[7-(2-amino[1,3]thiazolo[5,4-b]pyridin-6-yl)-9-methyl-2,3-dihydro-1,4-benzoxazepin-4(5H)-yl]-4-methylpyridine-3,5-dicarbonitrile] the IC50 was ≤ 100 nM.
For `Cc1cc(-c2cnc3sc(N)nc3c2)cc2c1OCCN(c1nc(CNC(C)(C)C)nc(C)c1C(C)C)C2` [Compound 90, 6-{4-[2-{[(1,1-dimethylethyl)amino]methyl}-6-methyl-5-(1-methylethyl)pyrimidin-4-yl]-9-methyl-2,3,4,5-tetrahydro-1,4-benzoxazepin-7-yl}[1,3]thiazolo[5,4-b]pyridin-2-amine], the IC50 was ≤ 100 nM.
`Cc1cc(-c2cncnc2)cc2c1OCCN(c1nc(N)nc(C)c1C(C)C)C2` [Compound 71, 4-methyl-5-(1-methylethyl)-6-(9-methyl-7-pyrimidin-5-yl-2,3-dihydro-1,4-benzoxazepin-4(5H)-yl)pyrimidin-2-amine] gave an IC50 of 100 to 500 nM.
